According to patent US20260240820A1, “METHOD FOR CONTROLLING MEMBRANE POTENTIAL-DEPENDENT ION CHANNEL THROUGH TYPE I TASTE RECEPTORS (T1RS)” (ION CHAT RESEARCH CORPORATE, priority 2022, published 2026):
“Also recorded” adds a separate entry of the source. Like-named read-outs stand apart in the source and are kept apart here.

Tests used:
T1R2/T1R3 = target: T1, T1R2/T1R3 (Homo sapiens, UniProt Q7RTX0+Q8TE23); conditions: Mailliet et al. (2009); read-out: IC50 for inhibition of the sucralose response of the sweet receptor (calcium imaging); cited from earlier work
T1 construct: host or cells: HEK cells overexpressing T1R2, T1R3 and G16-gust44 (Mailliet et al. 2009; Masuda et al. 2012)
T1 sequence (Q8TE23 20-839): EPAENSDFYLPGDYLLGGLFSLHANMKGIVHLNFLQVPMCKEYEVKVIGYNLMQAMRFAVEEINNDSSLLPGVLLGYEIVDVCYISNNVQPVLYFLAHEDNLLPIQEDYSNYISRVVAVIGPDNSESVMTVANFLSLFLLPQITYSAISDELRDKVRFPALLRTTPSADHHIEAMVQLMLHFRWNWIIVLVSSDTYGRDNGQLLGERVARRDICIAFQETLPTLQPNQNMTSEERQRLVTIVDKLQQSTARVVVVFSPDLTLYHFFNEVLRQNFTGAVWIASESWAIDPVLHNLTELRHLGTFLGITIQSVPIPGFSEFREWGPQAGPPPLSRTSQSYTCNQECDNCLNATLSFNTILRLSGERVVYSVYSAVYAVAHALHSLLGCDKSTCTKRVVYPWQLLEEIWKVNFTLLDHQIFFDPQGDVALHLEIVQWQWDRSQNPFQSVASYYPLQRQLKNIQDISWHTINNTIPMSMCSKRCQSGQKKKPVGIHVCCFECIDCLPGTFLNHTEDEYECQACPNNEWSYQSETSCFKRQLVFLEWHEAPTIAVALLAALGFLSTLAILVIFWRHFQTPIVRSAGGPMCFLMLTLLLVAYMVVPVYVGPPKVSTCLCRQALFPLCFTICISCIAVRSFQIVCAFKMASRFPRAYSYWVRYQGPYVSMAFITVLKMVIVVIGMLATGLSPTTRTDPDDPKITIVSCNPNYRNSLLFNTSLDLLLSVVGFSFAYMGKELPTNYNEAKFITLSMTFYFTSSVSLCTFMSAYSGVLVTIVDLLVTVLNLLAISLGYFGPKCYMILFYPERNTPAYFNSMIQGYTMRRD
T1 sequence (Q7RTX0 21-852): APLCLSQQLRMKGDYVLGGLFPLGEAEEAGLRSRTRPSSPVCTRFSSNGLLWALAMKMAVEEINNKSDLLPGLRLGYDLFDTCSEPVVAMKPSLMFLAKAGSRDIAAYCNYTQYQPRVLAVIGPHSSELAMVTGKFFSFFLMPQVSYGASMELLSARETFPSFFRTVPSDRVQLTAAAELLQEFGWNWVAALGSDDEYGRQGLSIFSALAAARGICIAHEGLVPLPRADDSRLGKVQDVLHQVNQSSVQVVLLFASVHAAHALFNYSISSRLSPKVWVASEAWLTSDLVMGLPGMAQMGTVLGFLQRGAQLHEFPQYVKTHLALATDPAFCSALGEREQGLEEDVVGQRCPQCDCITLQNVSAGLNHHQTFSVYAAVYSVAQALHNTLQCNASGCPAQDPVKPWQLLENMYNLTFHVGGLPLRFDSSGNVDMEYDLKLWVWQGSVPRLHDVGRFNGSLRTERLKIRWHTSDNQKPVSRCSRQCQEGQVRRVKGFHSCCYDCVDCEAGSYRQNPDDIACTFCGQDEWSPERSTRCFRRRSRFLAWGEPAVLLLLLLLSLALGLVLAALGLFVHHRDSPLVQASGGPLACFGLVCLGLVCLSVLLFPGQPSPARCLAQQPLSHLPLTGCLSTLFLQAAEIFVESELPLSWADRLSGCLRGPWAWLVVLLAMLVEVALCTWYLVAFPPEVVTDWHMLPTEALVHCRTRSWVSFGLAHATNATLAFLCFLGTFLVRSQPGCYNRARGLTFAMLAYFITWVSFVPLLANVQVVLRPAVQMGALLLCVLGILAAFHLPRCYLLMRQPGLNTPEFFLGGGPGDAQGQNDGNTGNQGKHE

Nav1.5 = assay: Patch-clamp (voltage clamp) recording of VGSC current in HEK cells stably expressing Nav1.5; conditions: for IC50: read-out: IC50 (VGSC inhibition)
[1] = test system: Nav1.5 in T1R3-silenced HEK cells; assay: VGSC current in HEK Nav1.5 cells with silenced T1R3; type: cell-based, human
Source text: The miRNAs Oligo (Thermofisher) used for silencing were annealed to form double-stranded DNA, which was then linked to the miR RNAi Expression Vector using T4 DNA ligase to create the knockdown vector. Specifically, the procedure followed the miR RNAi Expression Vector Kit manual (BLOCK-i™ Pol II miR RNAi Expression Vector Kit with EmGFP (Catalog number: K493600)).
Since Aβ25-35 peptide produced similar effects (enhancing VGSC activity, lowering the excitability threshold) as glutamine, it was considered that Aβ25-35 peptide might also act on T1R2/T1R3 receptors like glutamine. Therefore, in this implementation example, we used HEK-Nav1.5 cells with silenced T1R3 and compared the effect of Aβ25-35 peptide on VGSC with that in control HEK-Nav1.5 cells.
To strengthen these findings, we conducted similar experiments using HEK Nav1.5 cells in which T1R3 expression was silenced (FIG. 22). We measured VGSC currents in T1R3-silenced HEK Nav1.5 cells, applying stimuli every 8 seconds.

Nav1.1 = assay: Patch-clamp recording of VGSC current in HEK (Nav1.1) cells; type: cell-based, human
Source text: (§1) The cells used in the previous (18-1) experiment were cardiac-type VGSC cells. In this experiment, HEK (Nav1.1) and HEK (Nav1.6) cells, which are considered neuronal VGSC cells, were created. The effects of four peptides—Aβ25-35, Aβ1-38, Aβ1-40, and Aβ1-42—were examined using the same experimental protocol as in (18-1).

Cav1.2 = assay: Intracellular calcium measurement in HEK cells stably expressing Cav1.2 after KCl depolarisation; type: cell-based, human; conditions: 12.5 nM
Method: Specifically, experiments were conducted using a method to measure intracellular calcium concentration in HEK cells stably expressing Cav1.2. […] High concentrations of KCl depolarize the cell membrane potential by depolarizing the potassium equilibrium potential from the resting potential, activating voltage-gated calcium channels (VGCC, Cav1.2) that are activated by depolarization, and allowing extracellular calcium to flow into the cell through these calcium channels. (FIG. 47A) measures the activation process of intracellular calcium increase caused by the activation of these VGCCs.
The calcium response to high concentrations of potassium decays with a certain regularity, so the process was approximated using the Hyperbolic Decline formula
and the difference between the curve obtained (dashed line in FIG. 47A) and the experimental values was calculated to derive the enhancement of intracellular calcium by Aβ1-42 peptide.

Nav1.6 [2] = assay: Patch-clamp recording of VGSC current in HEK (Nav1.6) cells; type: cell-based, human
Source text: as §1, with “(18-1). […]” for “(18-1).”

Kv1.2 = assay: Patch-clamp recording of Kv1.2 potassium current in HEK cells expressing Kv1.2; type: cell-based, human
Method: The effects of Aβ peptides or umami substances on sustained potassium currents (VGKC) in cardiac myocytes can be studied using HEK cells expressing VGKC (such as Kv1.2, Kv3.2, Kv3.3) as well as SH-SY5Y cells expressing endogenous T1R GPCRs. For instance, as shown in the implementation example in (FIG. 36B), Aβ peptides were applied to VGKC-expressing human cultured cells, and VGKC currents were recorded using ramp-like or rectangular voltage waveforms via the patch-clamp technique. This allowed measurement of the changes (inhibition) in VGKC currents caused by Aβ peptides. Similar inhibition studies on VGKC can be conducted using umami substance L-glutamate sodium (MSG) (FIG. 36A).
As shown in (FIG. 37), Aβ1-42 peptide, unlike Aβ25-35 targeting T1R3, interacts with T1R1 and inhibits VGSC currents (FIGS. 37D, E).

VGSC = assay: Patch-clamp recording of VGSC current, cell type not specified or several cell types (summary statements); type: cell-based, human
[3] = test system: endogenous T1R GPCR of HEK cells; assay: Intracellular calcium (Cal-520) in HEK cells stably expressing Nav1.1 with endogenous T1R GPCR; type: cell-based, human; conditions: 10 nM then 20 nM for Aβ1-40 and Aβ1-42
Method: Specifically, experiments were conducted as follows using HEK cells stably expressing Nav1.1 (FIG. 45). The calcium-sensitive reagent (Cal-520, AAT Bioquest) was incubated at 37° C. for 60 minutes, followed by incubation at room temperature for 30 minutes, and then changes in intracellular calcium were measured using a fluorescence microscope. […] Initially, 10 nM, followed by 20 nM of Aβ1-40 was applied after 5 minutes (arrow). […] A total of 6 cell groups from two independent experiments were measured, averaged by the maximum fluorescence response value, and the mean and standard error (stderr) were calculated and plotted. […] 10 nM, followed by 20 nM of Aβ1-42 was applied after 5 minutes (arrow). […] A total of 12 cell groups from two independent experiments were measured, averaged by the minimum fluorescence response value, and the mean and standard error (stderr) were calculated and plotted. Similar to the experimental results using the patch-clamp method when Aβ peptide was applied to Nav1.5, it was confirmed from intracellular calcium measurements that the effects of Aβ1-40 and Aβ1-42 were different.

HEK Nav1.5 cells = assay: GFP-Tubulin / GFP-Actin cytoskeleton observation in HEK Nav1.5 cells; type: cell-based, human
Source text: To observe the impact of cinacalcet and Aβ1-42 peptide on microfilament (actin) fiber structures, we labeled cells with GFP-Actin (FIG. 34). […] This experimental approach, using GFP-Tubulin, GFP-Actin, or other fluorescent proteins to label microtubules and microfilaments, can be used to screen compounds that regulate the activity of ion channels and neuronal function-controlling proteins. Additionally, simultaneous labeling of tubulin and actin can be achieved using fluorescent antibodies or phalloidin after cell fixation.

Nav1.6 [4] = assay: Patch-clamp recording of VGSC current in HEK (Nav1.6) cells; type: cell-based, human; conditions: HEK cells expressing Nav1.6 and Kv1.2

| Molecule | IC50 (T1R2/T1R3) | IC50 (Nav1.5; prepulse −80 mV) | IC50 (Nav1.5; prepulse −100 mV) | IC50 (Nav1.5; prepulse −120 mV) | Effect on VGSC in T1R3-silenced cells [1] | Effect on VGSC current (Nav1.1) | Intracellular calcium after KCl-induced Cav1.2 activation (Cav1.2) | Enhancement of intracellular calcium relative to response to high concentrations of potassium (Cav1.2; n=3) | Effect on VGSC current (Nav1.6 [2]) | Effect on voltage gated K+ channel (Kv1.2) current (Kv1.2) | Effect on voltage gated K+ channel (Kv1.2) current (Kv1.2; listed as Aβ42 peptide) | Effect on VGSC inactivation (VGSC) | Effects on VGSCs (VGSC) | Change in intracellular calcium [3] | Microfilament structure (GFP-Actin) (HEK Nav1.5 cells) | Effect on Nav1.6 VGSC current (Nav1.6 [4]) | Effect on VGSC current (Nav1.5; 12.5 nM and 25 nM) | Effect on Nav1.5 VGSC current (Nav1.5; 12.5 nM, perforated patch-clamp with Gramicidin) | Shift of I-V plot peak in the hyperpolarizing direction (Nav1.5; 74 nM) | Effect on VGSC current (Nav1.5; 74 nM, whole-cell voltage clamp, listed as Aβ1-42 peptide) |
| --- | --- | --- | --- | --- | --- | --- | --- | --- | --- | --- | --- | --- | --- | --- | --- | --- | --- | --- | --- | --- |
| CCOC(=O)C(C)(C)Oc1ccc(Cl)cc1 [Clofibrate] | 28 µM | 580 µM | 1200 µM | 1040 µM | – | – | – | – | – | – | – | – | – | – | – | – | – | – | – | – |
| Aβ1-42: amyloid β peptide, Sequence No. 4 | – | – | – | – | is lost | enhancement of VGSC was observed | further increase in intracellular calcium | about 11% | enhancement of VGSC was observed | reduced Kv1.2 potassium current; also recorded: concentration-dependently inhibits Kv1.2 potassium currents | Inhibition of Voltage gated | delays the inactivation | Delay in VGSC inactivation | biphasic response; also recorded: transiently decreased, slowly recovered, and then began to increase | condensed GFP-Actin structures | amplified; also recorded: enhancing effect | concentration-dependent reductions in VGSC current | enhanced; also recorded: enhancement effect | 5-10 mV | decreasing trend; also recorded: suppressed sodium channel currents |
